Data taken from US20250282812A1, “ANTIVIRAL NUCLEOSIDE ANALOGUE, AND PHARMACEUTICAL COMPOSITION AND USE THEREOF” (SHANGHAI INSTITUTE OF MATERIA MEDICA , CHINESE ACADEMY OF …, priority 2022, published 2025).
Values after ≈ are worked out from the molar mass of the structure shown.

Legend:
[1] = test system: influenza virus (IFV) A/California/07/2009 (H1N1) pdm09 strain; experiment: In vitro activity against influenza virus (CPE, CCK8, MDCK cells); assay type: cell-based; details: 120 h, read-out: IFV (MDCK) EC50
[2] = test system: respiratory syncytial virus (RSV) A long strain; experiment: In vitro activity against respiratory syncytial virus (CPE, CCK8, HEp-2 cells); assay type: cell-based; details: human respiratory syncytial virus, 120 h, MOI=0.02, 5 days
[3] = test system: SFTSV-Nluc; experiment: microbe, parasite or virus in culture; assay type: cell-based, severe fever with thrombocytopenia syndrome virus (SFTSV); details: Severe fever with thrombocytopenia syndrome virus, Vero, 48 h; for inhibition at 10 µM: read-out: Inhibition rate (10 μM)
[4] = in vitro; details: dog
[5] = Cytotoxicity in HEp-2 cells (CCK8); details: human
[6] = Stability test of compounds in solutions at different pH values
[7] = Solubility of compounds in water; details: thermodynamic from solid
[8] = test system: influenza virus Influenza A/PR/8/34 (PR8); experiment: In vivo efficacy for influenza virus in mice; design: species or system Balb/C mice; details: […]; intragastric once daily Day 0-3; X219 hydrochloride 10, 20 and 30 mpk; favipiravir 200 mpk
[9] = test system: SFTSV-Nluc; design: species or system A129 mice; details: mouse
[10] = buffered saline solution pH 4.0, 3 h
[11] = buffered saline solution pH 4.0, 6 h
[12] = buffered saline solution pH 4.0, 9 h
[13] = buffered saline solution pH 4.0, 12 h
[14] = buffered saline solution pH 4.0, 15 h
[15] = buffered saline solution pH 4.0, 18 h
[16] = buffered saline solution pH 4.0, 21 h
[17] = buffered saline solution pH 4.0, 24 h
[18] = buffered saline solution pH 6.8, 3 h
[19] = buffered saline solution pH 6.8, 6 h
[20] = buffered saline solution pH 6.8, 9 h
[21] = buffered saline solution pH 6.8, 12 h
[22] = buffered saline solution pH 6.8, 15 h
[23] = buffered saline solution pH 6.8, 18 h
[24] = buffered saline solution pH 6.8, 21 h
[25] = buffered saline solution pH 6.8, 24 h

CC(C)C(=O)OCn1c(=O)ccn([C@@H]2O[C@](F)(COC(=O)C(C)C)[C@@H](O)[C@H]2O)c1=O [Compound X51]
EC50 [1]: < 370 nM
EC50 [2]: 2150 nM
EC50 [3]: 430 nM
inhibition at 10 µM [3]: 94.1%
CC50 [4]: > 10000 nM
CC50 at 5 days [5]: > 10000 nM
Content reduction (%) [6, 10]: 1.6%
Content reduction (%) [6, 11]: 2.5%
Content reduction (%) [6, 12]: 3.1%
Content reduction (%) [6, 13]: 3.4%
Content reduction (%) [6, 14]: 3.9%
Content reduction (%) [6, 15]: 4.6%
Content reduction (%) [6, 16]: 5.2%
Content reduction (%) [6, 17]: 5.6%
Content reduction (%) [6, 18]: 1.1%
Content reduction (%) [6, 19]: 2.0%
Content reduction (%) [6, 20]: 3.0%
Content reduction (%) [6, 21]: 3.8%
Content reduction (%) [6, 22]: 4.7%
Content reduction (%) [6, 23]: 5.6%
Content reduction (%) [6, 24]: 6.5%
Content reduction (%) [6, 25]: 7.4%

CC(C)C(=O)OC[C@@]1(F)O[C@@H](n2ccc(=O)n(COC(=O)C3CCCCC3)c2=O)[C@H](O)[C@@H]1O [Compound X55]
EC50 [1]: < 370 nM
EC50 [2]: 1630 nM
EC50 [3]: 1040 nM
inhibition at 10 µM [3]: 93.6%
CC50 [4]: > 10000 nM
CC50 at 5 days [5]: > 10000 nM
Content reduction (%) [6, 10]: 2.4%
Content reduction (%) [6, 11]: 4.9%
Content reduction (%) [6, 12]: 6.9%
Content reduction (%) [6, 13]: 9.0%
Content reduction (%) [6, 14]: 10.8%
Content reduction (%) [6, 15]: 12.7%
Content reduction (%) [6, 16]: 14.2%
Content reduction (%) [6, 17]: 15.4%
Content reduction (%) [6, 18]: 1.0%
Content reduction (%) [6, 19]: 2.3%
Content reduction (%) [6, 20]: 3.3%
Content reduction (%) [6, 21]: 4.4%
Content reduction (%) [6, 22]: 5.4%
Content reduction (%) [6, 23]: 6.4%
Content reduction (%) [6, 24]: 7.7%

CC(C)C(=O)OC[C@@]1(F)O[C@@H](n2ccc(=O)n(COC(=O)[C@@H](N)C(C)C)c2=O)[C@H](OC(=O)C(C)C)[C@@H]1OC(=O)C(C)C [Compound X98]
EC50 [1]: 500 nM
EC50 [2]: 1420 nM
EC50 [3]: 1160 nM
inhibition at 10 µM [3]: 95.7%
CC50 [4]: > 10000 nM
CC50 at 5 days [5]: > 10000 nM

CCCCCCCCCCCC(=O)OCn1c(=O)ccn([C@@H]2O[C@](F)(COC(=O)CCCCCCCCCCC)[C@@H](O)[C@H]2O)c1=O [Compound X199]
EC50 [1]: 410 nM
EC50 [2]: 460 nM
EC50 [3]: 2790 nM
inhibition at 10 µM [3]: 96.1%
CC50 [4]: > 10000 nM
CC50 at 5 days [5]: > 10000 nM

CC(C)C(=O)OC[C@@]1(F)O[C@@H](n2ccc(=O)n(COC(=O)c3cccnc3)c2=O)[C@H](OC(=O)C(C)C)[C@@H]1OC(=O)C(C)C [Compound X206]
EC50 [1]: 380 nM
EC50 [2]: 2430 nM
EC50 [3]: 1730 nM
inhibition at 10 µM [3]: 93.7%
CC50 [4]: > 10000 nM
CC50 at 5 days [5]: > 10000 nM
Content reduction (%) [6, 10]: 0.01%
Content reduction (%) [6, 11]: 0.03%
Content reduction (%) [6, 12]: 0.02%
Content reduction (%) [6, 13]: 0.03%
Content reduction (%) [6, 14]: 0.03%
Content reduction (%) [6, 15]: 0.01%
Content reduction (%) [6, 16]: 0.03%
Content reduction (%) [6, 17]: 0.0%
Content reduction (%) [6, 18]: 1.93%
Content reduction (%) [6, 19]: 3.09%
Content reduction (%) [6, 20]: 3.84%
Content reduction (%) [6, 21]: 4.06%
Content reduction (%) [6, 22]: 5.72%
Content reduction (%) [6, 23]: 6.34%
Content reduction (%) [6, 24]: 7.28%
Content reduction (%) [6, 25]: 8.16%

CC(C)C(=O)OC[C@@]1(F)O[C@@H](n2ccc(=O)n(COC(=O)c3cccnc3)c2=O)[C@H](O)[C@@H]1O [Compound X207]
EC50 [1]: 380 nM
EC50 [2]: 4090 nM
EC50 [3]: 1890 nM
inhibition at 10 µM [3]: 91.8%
CC50 [4]: > 10000 nM
CC50 at 5 days [5]: > 10000 nM

CC(=O)OC[C@@]1(F)O[C@@H](n2ccc(=O)[nH]c2=O)[C@H](OC(C)=O)[C@@H]1OC(C)=O [Compound X219-1]
solubility at 15 min [7]: 150 µg/mL (≈ 386 µM)

CC(=O)OC[C@@]1(F)O[C@@H](n2ccc(=O)n(COC(=O)c3cccnc3)c2=O)[C@H](OC(C)=O)[C@@H]1OC(C)=O [Compound X219]
EC50 [1]: 3920 nM
EC50 [2]: 2600 nM
EC50 [3]: 3390 nM
inhibition at 10 µM [3]: 91.7%
CC50 [4]: > 10000 nM
solubility at 15 min [7]: 700 µg/mL (≈ 1340 µM)
CC50 at 5 days [5]: > 10000 nM
Content reduction (%) [6, 10]: 0.22%
Content reduction (%) [6, 11]: 0.34%
Content reduction (%) [6, 12]: 0.44%
Content reduction (%) [6, 13]: 0.62%
Content reduction (%) [6, 14]: 0.70%
Content reduction (%) [6, 15]: 0.78%
Content reduction (%) [6, 16]: 0.93%
Content reduction (%) [6, 17]: 1.02%
Content reduction (%) [6, 18]: 1.06%
Content reduction (%) [6, 19]: 1.86%
Content reduction (%) [6, 20]: 2.92%
Content reduction (%) [6, 21]: 3.96%
Content reduction (%) [6, 22]: 5.27%
Content reduction (%) [6, 23]: 6.01%
Content reduction (%) [6, 24]: 7.02%
Content reduction (%) [6, 25]: 8.38%

CC(C)(C)C(=O)OCn1c(=O)ccn([C@@H]2O[C@](F)(COC(=O)c3cccnc3)[C@@H](O)[C@H]2O)c1=O [Compound X222]
EC50 [1]: < 370 nM
EC50 [2]: 770 nM
EC50 [3]: 3300 nM
inhibition at 10 µM [3]: 90.3%
CC50 [4]: > 10000 nM
CC50 at 5 days [5]: > 10000 nM

CC(=O)O[C@H]1[C@H](n2ccc(=O)[nH]c2=O)O[C@](F)(COC(=O)C(C)C)[C@H]1OC(C)=O [Compound X265-3]
solubility at 15 min [7]: 100 µg/mL (≈ 240 µM)

CC(C)C(=O)OC[C@@]1(F)O[C@@H](n2ccc(=O)n(COC(=O)[C@@H]3CCCN3)c2=O)[C@H](OC(=O)C(C)C)[C@@H]1OC(=O)C(C)C [Compound X266]
EC50 [1]: 894 nM
EC50 [2]: 1020 nM
EC50 [3]: 2070 nM
inhibition at 10 µM [3]: 94.6%
CC50 [4]: > 10000 nM
CC50 at 5 days [5]: > 10000 nM

CC(C)C(=O)OC[C@@]1(F)O[C@@H](n2ccc(=O)n(COC(=O)[C@@H]3CCCN3C)c2=O)[C@H](OC(=O)C(C)C)[C@@H]1OC(=O)C(C)C [Compound X267]
EC50 [1]: 500 nM
EC50 [2]: 880 nM
EC50 [3]: 2000 nM
inhibition at 10 µM [3]: 94.1%
CC50 [4]: > 10000 nM
CC50 at 5 days [5]: > 10000 nM

Br.CC(=O)OC[C@@]1(F)O[C@@H](n2ccc(=O)n(COC(=O)c3cccnc3)c2=O)[C@H](OC(C)=O)[C@@H]1OC(C)=O [X219 hydrobromide]
solubility at 15 min [7]: 17600 µg/mL

Br.CC(=O)O[C@H]1[C@H](n2ccc(=O)n(COC(=O)c3cccnc3)c2=O)O[C@](F)(COC(=O)C(C)C)[C@H]1OC(C)=O [X265 hydrobromide]
solubility at 15 min [7]: 8050 µg/mL

CC(=O)O[C@H]1[C@H](n2ccc(=O)n(COC(=O)c3cccnc3)c2=O)O[C@](F)(COC(=O)C(C)C)[C@H]1OC(C)=O.Cl [X265 hydrochloride]
solubility at 15 min [7]: 19500 µg/mL

NC(=O)c1nc(F)c[nH]c1=O [favipiravir, reference compound]
body weight after 4 days of infection compared with the initial body weight [8]: did not change significantly
in vivo fluorescence imaging, fluorescence intensity on ventral and dorsal side [9]: weak fluorescence intensity
